{
  "source": "patent US11649207B2",
  "about": "“Formulations of T-type calcium channel modulators and methods of use thereof” (PRAXIS PRECISION MEDICINES, INC., priority 2019, dated 2023)",
  "tested_on": "essential tremor",
  "experiment": "Clinical study in essential tremor (TETRAS, accelerometer)",
  "type": "in vivo, human",
  "details": "essential tremor patient, emerging data",
  "procedure": "A clinical study was conducted to investigate the efficacy, safety, and tolerability of the compound of formula (I) in essential tremor. A patient who has been diagnosed with essential tremor completed 3 study periods: Screening, Treatment period (14 days), and Safety follow-up. The patient received a stable dose of 1 tremor medication throughout the clinical trial. The patient received 20 mg of the compound of formula (I) (one tablet of formulation 5) orally once a day for 7 days and 40 mg of the compound of formula (I) (two tablets of 20 mg formulation 5) orally once a day for 7 days (total of 14 days consecutively). Efficacy of the compound of formula (I) on upper limb tremor was assessed by The Essential Tremor Rating Assessment Scale (TETRAS) upper limb score at Baseline, on Day 7, and on Day 14. Efficacy of the compound of formula (I) on other measures of tremor severity was assessed by TETRAS performance subscale score, TETRAS performance individual items, and accelerometer at Baseline, on Day 7, and on Day 14.",
  "data": [
    {"smiles": "CC(C)(C)NC(=O)CN1CCC(CNC(=O)c2cc(F)cc(Cl)c2)CC1", "note": "[compound of formula (I)]", "values": [
      {"measurement": "tolerability", "result": "well tolerated"}
    ]}
  ]
}
